Key:
XIAP BIR-3 = target: T1, XIAP BIR-3 (Homo sapiens, UniProt P98170); experiment: Fluorescence polarization binding affinity to XIAP BIR-3 (competition with AbuRPF-K(5-Fam)-NH2); settings: 5 nM labeled peptide, 40 nM BIR3, 15 min at RT, pH 7.5; reported as ranges
T1 construct: 40 nM of the respective IAP BIR3
Procedure: (§1) The binding affinities of the compounds are reported as a KD value (μM). Briefly, various concentrations of test peptides were mixed with 5 nM of the fluorescently labeled peptide (i.e., a mutated N-terminal Smac peptide—AbuRPF-K(5-Fam)-NH2) and 40 nM of the respective IAP BIR3 for 15 min at RT in […] of 0.1M Potassium Phosphate buffer, pH 7.5 containing […] bovine g-globulin. Following incubation, the polarization values (mP) were measured on a Victor2V (available from PerkinElmer Life Sciences) using a 485 nm excitation filter and a 520 nm emission filter. The reported KD values are supplied as ranges (A=<0.1 μM, B=0.1 μM to 1 μM, C>1 μM to 10 μM, D=>10 μM).

cIAP-1 BIR-3 = cIAP-1 BIR-3 (Homo sapiens, UniProt Q13490); experiment: Fluorescence polarization binding affinity to cIAP-1 BIR-3 (competition with AbuRPF-K(5-Fam)-NH2); settings: 5 nM labeled peptide, 40 nM BIR3, 15 min at RT, pH 7.5; reported as ranges; read-out: KD (c-IAP-1 BIR3)
Procedure: as §1

SK-OV-3 cells = experiment: Growth inhibition of ovarian cancer cell line SK-OV-3 (MTT assay, cell survival); format: cell-based; settings: Homo sapiens, drug concentration that results in 50% cell survival, 72 hrs incubation, reported as ranges
Procedure: Compounds of the invention also were tested for their ability to inhibit the growth of an ovarian cancer cell line, SK-OV-3. A known assay previously used for measuring cell growth (as described in Hansen, M. B., Nielsen, S. E., and Berg, K. (1989) J. Immunol. Methods 119, 203-210 and incorporated herein by reference in its entirety) was used. Briefly, SK-OV-3 cells are seeded in 96-well plates in McCoy's medium containing 10% fetal bovine serum albumin (5,000 per well) and incubated overnight at 37° C. The next day, test compounds are added at various concentrations (0.003-10 μM) and the plates are incubated at 37° C. for an additional 72 hrs. This incubation time was considered to be optimal for measuring inhibitory effects of the different compounds tested. 50 microliters of 5 mg/mL MTT reagent is added to each well and the plates are incubated at 37° C. for another three (3) hours. At the end of the three (3) hour incubation period, 50 microliters of DMSO is added to each well to dissolve cells and the optical density (OD) of the wells is measured with a microplate reader (Victor^2 1420, Wallac, Finland) at 535 nm. Cell survival (CS) was calculated using the following equation: CS=(OD treated well/mean OD control wells)×100%.
The CC50 (reported in the following tables), is defined as the drug concentration that results in 50% cell survival (CS), and is derived by calculating the point where the dose-response curve crosses the 50% CS point using GraphPad Prism. The reported CC50 values are supplied as ranges (A=<0.1 μM, B=0.1 μM to 1 μM, C=>1 μM to 10 μM, D=>10 μM).

Chain of cIAP-1 BIR-3 (Q13490 266-352 limits assumed): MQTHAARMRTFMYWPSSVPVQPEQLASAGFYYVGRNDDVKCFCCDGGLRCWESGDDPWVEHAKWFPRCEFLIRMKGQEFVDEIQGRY
T1 sequence (P98170 241-356 limits assumed): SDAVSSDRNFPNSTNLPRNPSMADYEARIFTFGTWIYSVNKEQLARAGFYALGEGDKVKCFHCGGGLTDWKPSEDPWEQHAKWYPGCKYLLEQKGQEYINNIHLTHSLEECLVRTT

`CN[C@@H](C)C(=O)N[C@H](C(=O)N1CC[C@@H]2[C@H]1[C@@H](c1c[nH]c3cc(F)ccc13)CN2C1CCN(C)CC1)C1CCCCC1` [Example 22, N-{1-Cyclohexyl-2-[6-(6-fluoro-1H-indol-3-yl)-4-(1-methyl-piperidin-4-yl)-hexahydro-pyrrolo[3,2-b]pyrrol-1-yl]-2-oxo-ethyl}-2-methylamino-propionamide] was tested. Which Kd (XIAP BIR-3) did it give?
The Kd was 0.1 to 1 µM.

What about the Kd (cIAP-1 BIR-3) of the same molecule?
Its Kd is less than 0.1 µM.

What about the CC50 (SK-OV-3 cells) of the same molecule?
Its CC50 is 0.1 to 1 µM.

For `CN[C@@H](C)C(=O)N[C@H](C(=O)N1CC[C@@H]2[C@H]1[C@@H](c1c[nH]c3cc(F)ccc13)CN2Cc1ncc(C)s1)C1CCCCC1` [Example 23, N-{1-Cyclohexyl-2-[6-(6-fluoro-1H-indol-3-yl)-4-(5-methyl-thiazol-2-ylmethyl)-hexahydro-pyrrolo[3,2-b]pyrrol-1-yl]-2-oxo-ethyl}-2-methylamino-propionamide], which Kd (XIAP BIR-3) is on record?
The Kd was less than 0.1 µM.

What about the Kd (cIAP-1 BIR-3) of the same molecule?
Its Kd is less than 0.1 µM.

What about the CC50 (SK-OV-3 cells) of the same molecule?
The CC50 was less than 0.1 µM.

What does the source list for `CN[C@@H](C)C(=O)N[C@H](C(=O)N1CC[C@@H]2[C@H]1[C@@H](c1c[nH]c3cc(F)ccc13)CN2Cc1ccccn1)C1CCCCC1` [Example 24, N-{1-Cyclohexyl-2-[6-(6-fluoro-1H-indol-3-yl)-4-pyridin-2-ylmethyl-hexahydro-pyrrolo[3,2-b]pyrrol-1-yl]-2-oxo-ethyl}-2-methylamino-propionamide]?
Kd (XIAP BIR-3): < 0.1 µM; Kd (cIAP-1 BIR-3): < 0.1 µM; CC50 (SK-OV-3 cells): < 0.1 µM

What does the source list for `CN[C@@H](C)C(=O)N[C@H](C(=O)N1CC[C@@H]2[C@H]1[C@@H](c1c[nH]c3cc(F)ccc13)CN2Cc1cccnc1)C1CCCCC1` [Example 25, N-{1-Cyclohexyl-2-[6-(6-fluoro-1H-indol-3-yl)-4-pyridin-3-ylmethyl-hexahydro-pyrrolo[3,2-b]pyrrol-1-yl]-2-oxo-ethyl}-2-methylamino-propionamide]?
Kd (XIAP BIR-3): < 0.1 µM; Kd (cIAP-1 BIR-3): < 0.1 µM; CC50 (SK-OV-3 cells): 0.1 to 1 µM

Which Kd (XIAP BIR-3) does the source give for `CN[C@@H](C)C(=O)N[C@H](C(=O)N1CC[C@@H]2[C@H]1[C@@H](c1c[nH]c3cc(F)ccc13)CN2Cc1ccncc1)C1CCCCC1` [Example 26, N-{1-Cyclohexyl-2-[6-(6-fluoro-1H-indol-3-yl)-4-pyridin-4-ylmethyl-hexahydro-pyrrolo[3,2-b]pyrrol-1-yl]-2-oxo-ethyl}-2-methylamino-propionamide] here?
The Kd was less than 0.1 µM.

What about the Kd (cIAP-1 BIR-3) of the same molecule?
The Kd was less than 0.1 µM.

What about the CC50 (SK-OV-3 cells) of the same molecule?
The CC50 was less than 0.1 µM.

For `CN[C@@H](C)C(=O)N[C@H](C(=O)N1CC[C@@H]2[C@H]1[C@@H](c1c[nH]c3cc(F)ccc13)CN2Cc1nccn1C)C1CCCCC1` [Example 27, N-{1-Cyclohexyl-2-[6-(6-fluoro-1H-indol-3-yl)-4-(1-methyl-1H-imidazol-2-ylmethyl)-hexahydro-pyrrolo[3,2-b]pyrrol-1-yl]-2-oxo-ethyl}-2-methylamino-propionamide], which Kd (XIAP BIR-3) is on record?
Its Kd is less than 0.1 µM.

And the Kd (cIAP-1 BIR-3)?
Its Kd is less than 0.1 µM.

And the CC50 (SK-OV-3 cells)?
The CC50 was 1 to 10 µM.

What does the source list for `CN[C@@H](C)C(=O)N[C@H](C(=O)N1CC[C@H]2NC[C@H](c3c[nH]c4cc(F)ccc34)[C@H]21)[C@@H](C)O` [Example 28, N-{1-[6-(6-Fluoro-1H-indol-3-yl)-hexahydro-pyrrolo[3,2-b]pyrrole-1-carbonyl]-2-hydroxy-propyl}-2-methylamino-propionamide]?
Kd (XIAP BIR-3): 0.1 to 1 µM; Kd (cIAP-1 BIR-3): < 0.1 µM; CC50 (SK-OV-3 cells): 1 to 10 µM

For `CC[C@H](NC(=O)[C@H](C)NC)C(=O)N1CC[C@H]2NC[C@H](c3c[nH]c4cc(F)ccc34)[C@H]21` [Example 29, N-{1-[6-(6-Fluoro-1H-indol-3-yl)-hexahydro-pyrrolo[3,2-b]pyrrole-1-carbonyl]-propyl}-2-methylamino-propionamide], which Kd (XIAP BIR-3) is on record?
Its Kd is less than 0.1 µM.

And the Kd (cIAP-1 BIR-3)?
Its Kd is less than 0.1 µM.

What about the CC50 (SK-OV-3 cells) of the same molecule?
Its CC50 is 0.1 to 1 µM.

Which Kd (XIAP BIR-3) does the source give for `CN[C@@H](C)C(=O)N[C@H](C(=O)N1CC[C@H]2NC[C@H](c3c[nH]c4cc(F)ccc34)[C@H]21)C(C)C` [Example 30, N-{1-[6-(6-Fluoro-1H-indol-3-yl)-hexahydro-pyrrolo[3,2-b]pyrrole-1-carbonyl]-2-methyl-propyl}-2-methylamino-propionamide] here?
The Kd was less than 0.1 µM.

And the Kd (cIAP-1 BIR-3)?
Its Kd is less than 0.1 µM.

And the CC50 (SK-OV-3 cells)?
The CC50 was less than 0.1 µM.

Which Kd (XIAP BIR-3) does the source give for `CN[C@@H](C)C(=O)N[C@H](C(=O)N1CC[C@H]2NC[C@H](c3c[nH]c4cc(F)ccc34)[C@H]21)C(C)(C)C` [Example 31, N-{1-[6-(6-Fluoro-1H-indol-3-yl)-hexahydro-pyrrolo[3,2-b]pyrrole-1-carbonyl]-2,2-dimethyl-propyl}-2-methylamino-propionamide] here?
Its Kd is 0.1 to 1 µM.

And the Kd (cIAP-1 BIR-3)?
The Kd was less than 0.1 µM.

And the CC50 (SK-OV-3 cells)?
Its CC50 is less than 0.1 µM.

`CN[C@@H](C)C(=O)N[C@H](C(=O)N1CC[C@H]2NC[C@H](c3c[nH]c4cc(F)ccc34)[C@H]21)C1CCCCC1` [Example 32, N-{1-Cyclohexyl-2-[6-(6-fluoro-1H-indol-3-yl)-hexahydro-pyrrolo[3,2-b]pyrrol-1-yl]-2-oxo-ethyl}-2-methylamino-propionamide] was tested. Which Kd (XIAP BIR-3) did it give?
The Kd was less than 0.1 µM.

What about the Kd (cIAP-1 BIR-3) of the same molecule?
Its Kd is less than 0.1 µM.

And the CC50 (SK-OV-3 cells)?
The CC50 was less than 0.1 µM.

How did the Kd (XIAP BIR-3) turn out when `CN[C@@H](C)C(=O)N[C@@H](CO)C(=O)N1CC[C@H]2NC[C@H](c3c[nH]c4cc(F)ccc34)[C@H]21` [Example 33, N-{2-[6-(6-Fluoro-1H-indol-3-yl)-hexahydro-pyrrolo[3,2-b]pyrrol-1-yl]-1-hydroxymethyl-2-oxo-ethyl}-2-methylamino-propionamide] was run?
The Kd was less than 0.1 µM.

And the Kd (cIAP-1 BIR-3)?
Its Kd is less than 0.1 µM.

What about the CC50 (SK-OV-3 cells) of the same molecule?
The CC50 was 1 to 10 µM.

Which Kd (XIAP BIR-3) does the source give for `CN[C@@H](C)C(=O)N[C@@H](COC)C(=O)N1CC[C@H]2NC[C@H](c3c[nH]c4cc(F)ccc34)[C@H]21` [Example 34, N-{2-[6-(6-Fluoro-1H-indol-3-yl)-hexahydro-pyrrolo[3,2-b]pyrrol-1-yl]-1-methoxymethyl-2-oxo-ethyl}-2-methylamino-propionamide] here?
Its Kd is less than 0.1 µM.

What about the Kd (cIAP-1 BIR-3) of the same molecule?
The Kd was less than 0.1 µM.

What about the CC50 (SK-OV-3 cells) of the same molecule?
The CC50 was 1 to 10 µM.

`CN[C@@H](C)C(=O)N[C@H](C(=O)N1CC[C@H]2NC[C@H](c3c[nH]c4cc(F)ccc34)[C@H]21)[C@@H](C)OC` [Example 35, N-{1-[6-(6-Fluoro-1H-indol-3-yl)-hexahydro-pyrrolo[3,2-b]pyrrole-1-carbonyl]-2-methoxy-propyl}-2-methylamino-propionamide] was tested. Which Kd (XIAP BIR-3) did it give?
The Kd was less than 0.1 µM.

What about the Kd (cIAP-1 BIR-3) of the same molecule?
The Kd was less than 0.1 µM.

What about the CC50 (SK-OV-3 cells) of the same molecule?
Its CC50 is less than 0.1 µM.

With `CN[C@@H](C)C(=O)N[C@H](C(=O)N1CC[C@@H]2[C@H]1[C@@H](c1c[nH]c3cc(F)ccc13)CN2C(=O)OC)C1CCCCC1` [Example 36, 4-[2-Cyclohexyl-2-(2-methylamino-propionylamino)-acetyl]-3-(6-fluoro-1H-indol-3-yl)-hexahydro-pyrrolo[3,2-b]pyrrole-1-carboxylic acid methyl ester] as the molecule, how does the Kd (XIAP BIR-3) read?
Its Kd is less than 0.1 µM.

And the Kd (cIAP-1 BIR-3)?
Its Kd is less than 0.1 µM.

What about the CC50 (SK-OV-3 cells) of the same molecule?
The CC50 was less than 0.1 µM.

With `CN[C@@H](C)C(=O)N[C@H](C(=O)N1CC[C@@H]2[C@H]1[C@@H](c1c[nH]c3cc(F)ccc13)CN2C(=O)C(F)(F)F)C1CCCCC1` [Example 37, N-{1-Cyclohexyl-2-[6-(6-fluoro-1H-indol-3-yl)-4-(2,2,2-trifluoro-acetyl)-hexahydro-pyrrolo[3,2-b]pyrrol-1-yl]-2-oxo-ethyl}-2-methylamino-propionamide] as the molecule, how does the Kd (XIAP BIR-3) read?
The Kd was less than 0.1 µM.

What about the Kd (cIAP-1 BIR-3) of the same molecule?
Its Kd is less than 0.1 µM.

And the CC50 (SK-OV-3 cells)?
Its CC50 is less than 0.1 µM.

For `CN[C@@H](C)C(=O)N[C@H](C(=O)N1CC[C@@H]2[C@H]1[C@@H](c1c[nH]c3cc(F)ccc13)CN2C(=O)c1ccccc1)C1CCCCC1` [Example 38, N-{2-[4-Benzoyl-6-(6-fluoro-1H-indol-3-yl)-hexahydro-pyrrolo[3,2-b]pyrrol-1-yl]-1-cyclohexyl-2-oxo-ethyl}-2-methylamino-propionamide], which Kd (XIAP BIR-3) is on record?
The Kd was less than 0.1 µM.

And the Kd (cIAP-1 BIR-3)?
Its Kd is less than 0.1 µM.

What about the CC50 (SK-OV-3 cells) of the same molecule?
Its CC50 is less than 0.1 µM.

`CN[C@@H](C)C(=O)N[C@H](C(=O)N1CC[C@@H]2[C@H]1[C@@H](c1c[nH]c3cc(F)ccc13)CN2C(=O)Cc1ccccc1)C1CCCCC1` [Example 39, N-{1-Cyclohexyl-2-[6-(6-fluoro-1H-indol-3-yl)-4-phenylacetyl-hexahydro-pyrrolo[3,2-b]pyrrol-1-yl]-2-oxo-ethyl}-2-methylamino-propionamide] was tested. Which Kd (XIAP BIR-3) did it give?
The Kd was less than 0.1 µM.

And the Kd (cIAP-1 BIR-3)?
The Kd was less than 0.1 µM.

And the CC50 (SK-OV-3 cells)?
The CC50 was less than 0.1 µM.
